Results published in patent US20240254547A1, “HIGHLY ACCURATE […]” (KAO CORPORATION, priority 2018, published 2024).

How the values were obtained:
[1] = system: TA100 strain of Salmonella typhimurium (S. typhimurium) LT-2; assay: Ames test (pre-incubation method), number of revertant colonies; type: cell-based; conditions: for Number of revertant colonies in Ames test, Mean: mean of three plates
Experimental: Exposure of cells to ENU was performed in accordance with the pre-incubation method of the Ames test (K. Mortelmans et al. Mutat. Res.—Fundam. Mol. Mech. Mutagen. 455:29-60, 2000). TA100 strain was seeded in 2 mL of Nutrient Broth No. 2 (produced by Oxoid Limited), and subjected to shaking culture at 37° C. and 180 rpm for 4 hours to afford pre-culture solution with an O.D.660 value of 1.0 or higher. ENU (produced by Sigma-Aldrich Co. LLC.) was diluted with dimethylsulfoxide (DMSO; produced by Wako Pure Chemical Industries, Ltd.). Into test tubes, 100 μL of the ENU solution, 500 μL of 0.1 M phosphate buffer, and 100 μL of the pre-culture solution were added (amount of ENU: 62.5, 125, 250, 500, and 1,000 μg/tube), and the resultants were subjected to shaking culture at 100 rpm in a water bath at 37° C. for 20 minutes (ENU group). For a control group, 100 μL of solvent (DMSO) was added instead of the ENU solution. After shaking culture for 20 minutes, the test tubes each containing a culture solution were taken out of the water bath, and 50 μL of each culture solution was added to 2 mL of Nutrient Broth solution aliquoted in advance, and the resultant was further cultured in an incubator at 37° C. and 180 rpm for 14 hours, from which the bacterial suspensions were then collected and centrifuged at 7,500 rpm for 5 minutes, and the supernatants were removed to collect the bacterial cells.
For the Ames test, a bacterial suspension exposed to ENU by using the pre-incubation method was produced under the above-described conditions, and 2 mL of top agar (containing 1% NaCl, 1% agar, 0.05 mM histidine, and 0.05 mM biotine) warmed to 45° C. was added thereto and the resultant was suspended by using a Vortex, and poured onto a minimal glucose agar medium (Tesmedia® AN; produced by Oriental Yeast Co., Ltd.) to form a layer. The resulting plate was subjected to culturing at 37° C. for 48 hours, and the number of colonies observed was counted.

[2] = system: gpt gene; assay: gpt-assay, gene mutation frequency (OECD TG488); type: in vivo, mouse (C57BL/6JJmsSlc-Tg (gpt delta)); conditions: bone marrow
Experimental: Male TG mice which were 7 to 9 weeks old at initiation of administration were used. ENU (produced by Toronto Research Chemicals, Inc.) was dissolved in saline to a concentration of 15.0 mg/mL. By using a plastic syringe and a 25 G injection needle, […] was intraperitoneally administered to the mice once per day (ENU 150 mg/kg/day) for 5 days (ENU group). Saline was administered to a control group. Seven days after the final administration, the animals were each euthanized to resect the femur, and genomic DNA was extracted from the bone marrow by using a REcoverEase DNA Isolation Kit (produced by Agilent Technologies) in accordance with the recommended protocol. The double-stranded DNA concentration of the resulting DNA was measured by using a Qubit3.0 Fluorometer (produced by Thermo Fisher Scientific) with a Qubit™ dsDNA BR Assay Kit attached thereto.
DNA was extracted from the bone marrow of each of the mice obtained in 1) by using phenol/chloroform. For the extract DNA, gene mutation frequency was calculated by using the gpt gene introduced into each TG mouse in accordance with OECD Guidelines for the Testing of Chemicals 488 (OECD TG488) (gpt-assay). […] From the number of colonies formed on the selective medium (mutant colonies) and the number of colonies formed on the medium for titer determination (total colonies), mutation frequency (*10^−6) was calculated. […]

CCN(N=O)C(N)=O [ENU, ethylnitrosourea]
Number of revertant colonies after exposure to ENU versus DMSO control ([1]; 62.5 to 1,000 μg/plate): increase
Number of revertant colonies in Ames test, Mean ([1]; ENU 62.5 μg/plate): 207.3
Number of revertant colonies in Ames test ([1]; ENU 62.5 μg/plate, plate 1): 220
Number of revertant colonies in Ames test ([1]; ENU 62.5 μg/plate, plate 2): 192
Number of revertant colonies in Ames test ([1]; ENU 62.5 μg/plate, plate 3): 210
Number of revertant colonies in Ames test, Mean ([1]; ENU 125 μg/plate): 381.3
Number of revertant colonies in Ames test ([1]; ENU 125 μg/plate, plate 1): 430
Number of revertant colonies in Ames test ([1]; ENU 125 μg/plate, plate 2): 391
Number of revertant colonies in Ames test ([1]; ENU 125 μg/plate, plate 3): 323
Number of revertant colonies in Ames test, Mean ([1]; ENU 250 μg/plate): 1389.0
Number of revertant colonies in Ames test ([1]; ENU 250 μg/plate, plate 1): 1482
Number of revertant colonies in Ames test ([1]; ENU 250 μg/plate, plate 2): 1359
Number of revertant colonies in Ames test ([1]; ENU 250 μg/plate, plate 3): 1326
Number of revertant colonies in Ames test, Mean ([1]; ENU 500 μg/plate): 3960.7
Number of revertant colonies in Ames test ([1]; ENU 500 μg/plate, plate 1): 4095
Number of revertant colonies in Ames test ([1]; ENU 500 μg/plate, plate 2): 4006
Number of revertant colonies in Ames test ([1]; ENU 500 μg/plate, plate 3): 3751
Number of revertant colonies in Ames test, Mean ([1]; ENU 1000 μg/plate): 2534.0
Number of revertant colonies in Ames test ([1]; ENU 1000 μg/plate, plate 1): 1659
Number of revertant colonies in Ames test ([1]; ENU 1000 μg/plate, plate 2): 3206
Number of revertant colonies in Ames test ([1]; ENU 1000 μg/plate, plate 3): 2737
Mean Mutant Frequency (gpt-assay) ([2]; ENU 150 mg/kg/day intraperitoneally for 5 days, n=4): 126.33 *10^−6
Gene mutation frequency (gpt-assay) versus control group ([2]; ENU 150 mg/kg/day): Significant increase
